Test results published in US20220088031A1, “METHODS AND COMPOSITIONS FOR TREATING RESISTANT AND RECURRENT FORMS OF CANCER” (Health Research, Inc., priority 2019, published 2022).
Entries after “also recorded” stand apart in the source; their conditions may differ.

How the values were obtained:
[1] = tested on: E006AA hT xenografts; assay: Human PCa xenograft study; assay type: in vivo, SCID mice; settings: 3 weeks
Description: Human PCa xenograft study: SCID (C.B-Igh-1^b/IcrTac-Prkdc^[…]) mice (6 weeks old) were purchased from an in house colony maintained by Roswell Park Laboratory Animal Shared Resource. Animal protocols were approved by the Roswell Park Institutional Animal Care and Use Committee (IACUC protocol #1306M). E006AA hT cells (80% confluency) were harvested and live cells quantified. Harvested cells were washed and resuspended in serum-free DMEM/F-12 (1:1) mix. Four ×10^6 E006AA hT cells were mixed with Matrigel (1:1) and injected subcutaneously in the right and left flanks of each mouse. When xenograft tumors reached 5 mm in diameter (22 days post injection), mice were randomly divided into 6 groups of 4 mice. First group received 100 μl Neobee M5 oil (vehicle) and 100 μl normal saline each twice weekly. Second group received 100 μl Neobee M5 oil and DOC (6 mg/kg bw) twice weekly. Third group received 10058-F4 (20 mg/kg bw) and DOC (6 mg/kg bw) twice weekly. Fourth group received JSH-23 (3 mg/kg bw) and DOC (6 mg/kg bw) twice weekly. Fifth group received 10058-F4 (20 mg/kg bw) and normal saline twice weekly. Sixth group received JSH-23 (3 mg/kg bw) and normal saline twice weekly. All treatments were administered for 3 weeks. Mice were euthanized, tumors were excised and flash frozen in liquid nitrogen. The tissue lysates were used for caspase-3 activity and Western blotting of CC, cleaved PARP, and cleaved caspase-3 proteins.
(§1) Immunoblotting: Immunoblotting was performed as described previously. Protein lysates were prepared using a lysis in NP-40 buffer (50 mM Tris-HCl pH 7.4, 150 mM NaCl, 1 mM EDTA, 1 mM EGTA, 1% NP-40) supplemented with protease and phosphatase inhibitor cocktail. Protein content was quantified using a micro BCA protein estimation kit (Thermo Scientific, Waltham, Mass.; Cat #23235). Protein samples were resolved on 4-20% Criterion gels, transferred on nitrocellulose membranes (BioRad, Hercules, Calif.) and subjected to immunoblotting. Membranes were blocked in 5% fat free dry milk (Blotto, Santa Cruz, Dallas, Tex.; Cat #sc-2324) prepared in PBS-T (Tween-20) and incubated overnight in primary antibodies (1:1000 dilution) at 4° C. with continuous shaking. After washing with PBS-T, membranes were incubated in HRP conjugated anti-mouse or anti-rabbit secondary antibody at room temperature for 1 hr. After washing with PBS-T, proteins were detected using Clarity chemiluminescent reagent (BioRad, Hercules, Calif.; Cat #1705061) and X-Ray films (ASI, Fort Lauderdale, Fla.; Cat #XR1570). Membranes were stripped using stripping buffer and probed with HRP conjugated beta-actin antibody to ensure equal loading of proteins.
(§2) Caspase-3 (DEVDase) activity assay: PCa cell lysates prepared in NP40 lysis buffer were incubated with DEVD-AFC (caspase-3 substrate) at 37° C. for 90 min in caspase activity assay buffer (50 mM HEPES pH 7.4, 150 mM NaCl, 1% CHAPS, 1 mM EDTA, 1 mM DTT, 50% glycerol). Fluorescence intensity was detected using a Synergy microplate reader at excitation and emission wavelengths of 400 nm and 508 nm, respectively. Arbitrary fluorescence units were normalized with protein content of cell lysates and represented as fold change compared to control groups.

[2] = tested on: RC-77 T/E cells; assay: Cell death, DEVDase activity and CC expression in a second AA PCa cell line; assay type: cell-based, human; settings: both AA PCa cell lines; for CC expression / caspase-3 activity: DOC with or without inhibitor, 24 hrs; for cell death: not as effective as in CA PCa cells
Method: as §1
(§3) Cell viability assay: PCa cells (5×10^4 cells/well) were seeded on 6-well cell culture plates and incubated with DOC (1-20 nM) for 24 hrs. Floating and attached cells were collected using trypsinization. Live and dead cells were counted under a light microscope using a trypan blue exclusion assay.
as §2

[3] = tested on: E006AA cells; assay: Seahorse XF bioenergetics assay, glycolytic reserve capacity; assay type: cell-based, human; settings: for glycolytic reserve capacity: in the presence of DOC, compared to control or DOC alone
Method: Seahorse XF bioenergetics assay: Basal glycolytic reserve capacity in PC-3, DU145, and […] PCa cells was assessed using an Agilent seahorse XF glycolytic stress test kit (Agilent Technologies Inc., Wilmington, Del.) and a Seahorse XF96 analyzer (Agilent Technologies Inc., Wilmington, Del.) analyzer as described. ATP production in […] cells after treatment with drug combinations was assessed using a Mito Stress test kit (Agilent Technologies Inc., Wilmington, Del.).

[4] = tested on: E006AA cells; assay: Immunoblot analysis of CC in cytosolic and mitochondrial fractions; assay type: cell-based, human; settings: in combination with DOC (24 hrs)
Method: Subcellular fractionation for the preparation of cytosolic and mitochondrial fractions: Cells were seeded on 15 cm cell culture plates followed by treatment with various compounds for the preparation of cytosolic and mitochondrial fractions as described. Cells were harvested via gentle scraping, washed twice with ice cold 1×PBS, and resuspended in homogenization buffer (20 mM HEPES, pH 7.4; 10 mM KCl; 1.5 mM MgCl2; 1 mM EDTA; 1 mM EGTA; 250 mM sucrose) supplemented with freshly added 1× protease inhibitor cocktail and 1 mM DTT. Cells were incubated in homogenization buffer for 30 min in ice and homogenized using a dounce homogenizer (˜25 strokes using pestle A). Cell homogenates were pre-cleared of unbroken cells and debris using centrifugation at 1000 g for 10 min. The supernatant was collected in new tubes and centrifuged at 12000 rpm for 20 min to obtain a mitochondrial pellet, which was washed 3 times with homogenization buffer and lysed in NP40 buffer, and stored as the mitochondrial fraction. The supernatant was ultra-centrifuged to obtain purified cytosol.
as §1

[5] = tested on: E006AA cells; assay: Caspase-3 (DEVDase) activity assay; assay type: cell-based, human
Method: as §2

[6] = tested on: E006AA cells; assay: Mitochondrial ROS production, MitoSOX dye, flow cytometry; assay type: cell-based, human
[7] = tested on: E006AA cells; assay: Clonogenic assay; assay type: cell-based, human
Method: Clonogenic assay: PCa cells were seeded in each well of 6 well cell culture plates. Cells were treated and plates were incubated in a CO2 cell culture incubator for 6 more days. Colonies were fixed in 10% formalin first and stained with 0.5% crystal violet solution. Plates were dried and pictures were captured using a Gel documentation system and Coomassie blue filter (Bio Rad, Hercules, Calif.).

[8] = tested on: E006AA cells; assay: Cell death quantification, Trypan blue exclusion assay; assay type: cell-based, human; settings: combined treatment with DOC (24 hrs)
Method: as §3

[9] = in combination with DOC (6 mg/kg bw) twice weekly
[10] = inhibitor alone, 10058-F4 20 mg/kg bw or JSH-23 3 mg/kg bw twice weekly
[11] = combined treatment with DOC (24 hrs)

Molecule: Cc1ccc(NCCCc2ccccc2)c(N)c1 [NF-κB inhibitor, JSH-23]
- CC expression in xenografts [1, 9]: further upregulated
- PARP cleavage in xenografts [1, 9]: PARP cleavage
- caspase-3 activation in xenografts [1, 9]: caspase-3 activation
- CC expression in xenografts [1, 10]: induced CC expression
- CC expression [2]: induced CC expression
- caspase-3 activity [2]: activated caspase-3 activity
- cell death [2]: enhanced cell death
- glycolytic reserve capacity [3]: inhibited glycolytic reserve capacity
- CC release [4]: resulted in CC release
- caspase-3 activation ([5]; agent alone): only a modest increase
- caspase-3 activation [5, 11]: increased caspase-3 activation
- MitoROS production ([6]; agent alone): MitoROS production
- MitoROS production ([6]; in combination with DOC): MitoROS production
- colony forming ability (CFA) ([7]; with DOC): reduced the CFA
- colony forming ability (CFA) ([7]; without DOC): reduced the CFA
- cell death [8]: enhanced cell death

Molecule: CCc1ccc(/C=C2/SC(=S)NC2=O)cc1 [c-Myc inhibitor, 10058-F4]
- CC expression in xenografts [1, 9]: further upregulated
- PARP cleavage in xenografts [1, 9]: PARP cleavage
- caspase-3 activation in xenografts [1, 9]: caspase-3 activation
- CC expression in xenografts [1, 10]: induced CC expression
- CC expression [2]: induced CC expression
- caspase-3 activity [2]: activated caspase-3 activity
- cell death [2]: enhanced cell death
- glycolytic reserve capacity [3]: inhibited glycolytic reserve capacity
- CC release [4]: CC release only in combination treatment; also recorded: resulted in CC release
- caspase-3 activation ([5]; agent alone): only a modest increase
- caspase-3 activation [5, 11]: increased caspase-3 activation
- colony forming ability (CFA) ([7]; with DOC): reduced the CFA
- colony forming ability (CFA) ([7]; without DOC): reduced the CFA
- cell death [8]: enhanced cell death

Molecule: bisperoxovanadium 5-hydroxipyridine [AKT activator]
- glycolytic reserve ([3]; agent alone): inhibited glycolytic reserve
- glycolytic reserve capacity [3]: inhibited glycolytic reserve capacity
- CC release [4]: CC release only in combination treatment; also recorded: resulted in CC release
- caspase-3 activation ([5]; agent alone): only a modest increase
- caspase-3 activation [5, 11]: increased caspase-3 activation
- MitoROS production ([6]; agent alone): MitoROS production
- MitoROS production ([6]; in combination with DOC): MitoROS production
- colony forming ability (CFA) ([7]; with DOC): reduced the CFA
- colony forming ability (CFA) ([7]; without DOC): reduced the CFA
- cell death [8]: enhanced cell death
